Data taken from PubChem BioAssay (NCI).
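Cells were grown in 96-well plates and exposed to each compound for 48 hours at five concentrations; endpoints were interpolated linearly between bracketing concentrations, or set to the highest concentration if not reached. TGI marks complete inhibition of growth.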

Experiments:
Assay in all cases: NCI anticancer screen, dose series, 48 h
SF-268 CNS = test system: SF-268 CNS
SNB-75 CNS = test system: SNB-75 CNS
SK-MEL-2 melanoma = test system: SK-MEL-2 melanoma
UACC-62 melanoma = test system: UACC-62 melanoma
TK-10 renal = test system: TK-10 renal
SW-620 colon = test system: SW-620 colon
SN12C renal = test system: SN12C renal
OVCAR-5 ovarian = test system: OVCAR-5 ovarian
T-47D breast = test system: T-47D breast
786-0 renal = test system: 786-0 renal
SK-MEL-28 melanoma = test system: SK-MEL-28 melanoma
HCT-15 colon = test system: HCT-15 colon
NCI-H522 lung = test system: NCI-H522 lung

| Compound | TGI (SF-268 CNS) [µM] | TGI (SNB-75 CNS) [µM] | TGI (SK-MEL-2 melanoma) [µM] | TGI (UACC-62 melanoma) [µM] | TGI (TK-10 renal) [µM] | TGI (SW-620 colon) [µM] | TGI (SN12C renal) [µM] | TGI (OVCAR-5 ovarian) [µM] | TGI (T-47D breast) [µM] | TGI (786-0 renal) [µM] | TGI (SK-MEL-28 melanoma) [µM] | TGI (HCT-15 colon) [µM] | TGI (NCI-H522 lung) [µM] |
| --- | --- | --- | --- | --- | --- | --- | --- | --- | --- | --- | --- | --- | --- |
| c1ccc2c(c1)c1c(n2CCOCCN2CCCC2)CCCC1 | > 100 | 76 | 30.7 | 33.7 | 37 | 32.1 | 33.6 | 35.3 | 61.9 | 29.6 | 29.4 | 31.2 | – |
| N#CN/C(N)=N/C/N=C(\N)NC#N | > 100 | > 100 | > 100 | > 100 | > 100 | 36 | > 100 | > 100 | – | 60.8 | > 100 | 50.2 | > 100 |
| CN1CN(c2ccccc2)C2(CCN(CC(C)(c3ccc(F)cc3)C3OCCCO3)CC2)C1=O (stereo unspecified) | 44.9 | 46.6 | – | 34.6 | 31.9 | 43.7 | 34.6 | 25.7 | 56.2 | 43.1 | 34.6 | 33.9 | 33.6 |
| Brc1ccc(C[P+]2(c3ccccc3)CCCCC2)cc1 | – | 77.1 | > 100 | > 100 | > 100 | > 100 | > 100 | > 100 | – | > 100 | > 100 | > 100 | > 100 |
| Cc1c2c3ccccc3nc-2n(C)c2ccccc12 | 19.1 | 7.75 | – | 3.67 | 9.09 | 12.9 | 6.97 | 8.27 | 41.3 | 13 | 12.5 | 11.3 | – |
| NC(=S)/N=C(/c1nc2ccc(Cl)cc2[nH]c1=O)C(O)c1ccccc1Cl (stereo unspecified) | > 100 | > 100 | > 100 | > 100 | > 100 | > 100 | – | > 100 | – | > 100 | > 100 | > 100 | > 100 |
| O=[N+]([O-])c1ccc2c(c1)N([O-])C1(CCCCC1)[N+]2=O | 69.4 | 33.2 | 52.1 | 37.1 | 26.2 | 56 | 35.1 | 34.7 | 64.7 | 24.6 | 34.5 | 39.4 | – |
| Cc1nc(CC#N)n[nH]1 | > 100 | > 100 | > 100 | > 100 | > 100 | > 100 | > 100 | > 100 | – | > 100 | – | > 100 | > 100 |
| c1ccc(C(NCC2CCO2)(c2ccccc2)c2ccccc2)cc1 (stereo unspecified) | – | 28.8 | 42.5 | 32 | 28.4 | 44.4 | 51.3 | 30.5 | – | 41.6 | > 100 | 33.7 | 28.1 |
| CS(=O)(=O)c1nc(-c2cc3c(c(S(C)(=O)=O)n2)CCCC3)cc2c1CCCCC2 | 85.1 | > 100 | > 100 | > 100 | > 100 | > 100 | > 100 | > 100 | – | > 100 | > 100 | > 100 | > 100 |
| CC[C@@]1(O)C(=O)OCc2c1cc1n(c2=O)Cc2c-1nc1ccccc1c2/C=N\NC(=O)C1CCCN1 (stereo partly specified) | 3.96 | 1.8 | 58.4 | 0.653 | > 100 | > 73.8 | > 48.2 | > 73.2 | > 100 | 8.01 | > 100 | > 61.9 | – |
| COC(=O)c1ccc(/C=C2\Oc3ccccc3C2=O)cc1 | > 100 | > 100 | – | > 100 | > 100 | > 100 | > 100 | – | > 100 | > 100 | > 100 | > 100 | > 100 |
| [N-]=[N+]=NC(c1cn(C2CC(O)C(CO)O2)c(=O)[nH]c1=O)C(Br)Br (stereo unspecified) | – | > 100 | > 100 | > 100 | > 100 | > 100 | > 100 | > 100 | – | > 100 | > 100 | > 100 | > 100 |
| CN(C(=O)C12C3C4C5C3C1(C(=O)C13C6C7C8C6C1C8C73)C5C42)C(C)(C)C (stereo unspecified) | > 50 | > 50 | > 50 | > 50 | > 50 | > 34 | > 50 | > 50 | – | > 50 | > 50 | > 32.2 | > 50 |
| O=C1C(Br)=C(c2ccccc2)O/C1=C/C(=O)c1ccc(Br)cc1 | > 100 | > 100 | – | > 100 | > 100 | 47.3 | 26.9 | > 100 | > 100 | 47 | > 100 | > 100 | 39.1 |
| O=CNNC(=O)Nc1cccc2ccccc12 | > 100 | > 100 | – | > 100 | > 100 | > 100 | > 100 | > 100 | > 100 | > 100 | > 100 | > 100 | – |
| OC1(c2ccc(-c3ccccc3)cc2)c2ccccc2C2=NCCN21 (stereo unspecified) | > 100 | 48.9 | 24.9 | 53.1 | > 100 | > 100 | > 100 | – | > 100 | 33.1 | 80.6 | > 100 | – |
| COC(CN(C(C)=O)C1CCC2(SCCS2)c2[nH]c3ccccc3c21)OC (stereo unspecified) | > 100 | > 100 | > 100 | – | > 100 | > 100 | > 100 | > 100 | – | > 100 | > 100 | > 100 | > 100 |
| O=c1cc(CO)oc2c3c(cc(O)c12)OCC(COC1OC(CO)C(O)C(O)C1O)=CC3 (stereo unspecified) | > 100 | > 100 | > 100 | > 100 | > 100 | > 100 | > 100 | > 100 | – | > 100 | > 100 | > 100 | > 100 |
| COc1ccc(C(=O)O[C@H]2[C@@H]3C=CO[C@@H](OC4OC(CO)C(O)C(O)C4O)[C@@H]3[C@@]3(CO)O[C@@H]23)cc1O (stereo partly specified) | > 100 | > 100 | > 100 | > 100 | > 100 | > 100 | > 100 | > 100 | – | > 100 | > 100 | – | > 100 |
| CCN1CCC(O)(c2ccc(Oc3ccc(F)cc3)cc2)C(C(=O)c2ccc(Oc3ccc(F)cc3)cc2)C1 (stereo unspecified) | 34.9 | 30.3 | 31.6 | 28 | 23.5 | 30.3 | 27.5 | 28.5 | 30.9 | 26.4 | 30.5 | 23.7 | – |
| O=C(/C=C/c1ccccc1)CSc1ncn[nH]1 | > 100 | > 100 | > 100 | > 100 | > 100 | > 100 | > 100 | > 100 | – | > 100 | > 100 | > 100 | > 100 |
| O=C(NCCN1CCOCC1)c1cn2c(ccc3sc4ccccc4c(=O)c32)n1 | > 100 | 59.4 | – | – | > 100 | 25.3 | > 100 | > 100 | – | 40 | > 100 | > 100 | > 100 |
| COc1ccc(C(c2c(O)c3ccccc3n(-c3ccccc3)c2=O)c2c(O)c3ccccc3n(-c3ccccc3)c2=O)cc1 | > 100 | – | > 100 | – | > 100 | > 100 | > 100 | > 100 | – | > 100 | > 100 | > 100 | > 100 |
| COc1ccc(N=NC(C(=O)c2ccccc2)C(=O)c2ccccc2)cc1 | > 100 | 74.8 | 61.2 | 56.1 | > 100 | > 100 | 78.8 | 87.1 | – | 61 | > 100 | > 100 | 45 |
| CCOc1ccc2[nH]c3c(C)c4ccncc4c(C)c3c2c1 | 2.71 | 3.1 | 2.48 | – | 3.59 | 1.75 | 1.93 | 2.93 | – | 2.2 | 3.61 | 1.61 | 2.77 |
| Clc1ccc(C2=NN=C3C(c4ccccc4)=Nc4ccccc4N3C2)cc1 | > 93.9 | – | > 100 | > 100 | > 50.2 | > 100 | > 100 | > 30.6 | – | > 100 | > 100 | > 100 | 8.17 |
| CN(C)c1ccc(C=NCC2CCCN3CCCCC23)cc1 (stereo unspecified) | > 100 | > 100 | – | > 100 | > 100 | – | – | > 100 | – | > 100 | – | > 100 | > 100 |
| NC1=C(NC(=O)Cc2ccccc2F)C(=O)c2ccccc2C1=O | > 100 | 62.6 | > 100 | > 100 | 69.7 | > 100 | > 100 | – | – | 98.2 | > 100 | > 100 | > 100 |
